For series [1], the system named is J6/JFH chimeric HCV reporter virus (J6/JFH-Rluc2a-FLAG). Put plainly: Antiviral assay with HCVcc virus in Huh-Lunet cells. The format is cell-based, HCV genotype 2a. The note with it: Hepatitis C virus, 72 h, read-out: Anti-HCV activity EC50, J6/JFH.
Series [2] is described as follows: Cytostatic assay. Particulars: human, HCV replicon-containing cells (Huh 5-2, HuH6 or Huh 9-13). The format is cell-based.
The test system of series [3] is GSK-4^res replicon. Put plainly: Anti-HCV assay, GSK-4 resistant replicon.
Series [4] deals with HuH6 replicons. Put plainly: Anti-HCV replicon assay in HuH6 cells. The note with it: Hepatitis C virus, HuH-6, read-out: Anti-HCV activity EC50, HuH6.
The test system of series [5] is HCV. Particulars: cited from earlier work.
In series [6] the test system is HCV replicon in Huh 9-13 cells. Put plainly: HCV replicon clearance-rebound assay. The format is cell-based.
Series [7] relates to BILN-2061^res replicon. The series can be described thus: Anti-HCV assay, BILN-2061 resistant replicon. Particulars: for EC50: Hepatitis C virus, read-out: EC50, BILN-2061^res; for fold resistance, BILN-2061^res: versus wild-type replicon.
The test system of series [8] is 2′-C-MeCyt^res replicon. Put plainly: Anti-HCV assay, 2′-C-MeCyt resistant replicon. Particulars: for EC50: Hepatitis C virus, read-out: EC50, 2′-C-MeCyt^res; for fold resistance, 2′-C-MeCyt^res: versus wild-type replicon.
For series [9], the system named is 4′-Azidocytidine^res replicon. The series can be described thus: Anti-HCV assay, 4′-azidocytidine resistant replicon. Particulars: for EC50: Hepatitis C virus, read-out: EC50, 4′-Azidocytidine^res; for fold resistance, 4′-Azidocytidine^res: versus wild-type replicon.
For series [10], the system named is VX-950^res and BILN-2061^res replicon. Put plainly: Anti-HCV assay, VX-950 and BILN-2061 double resistant replicon. Particulars: for EC50: Hepatitis C virus, read-out: EC50, VX-950^res and BILN-2061^res; for fold resistance, VX-950^res and BILN-2061^res: versus wild-type replicon.

For `CNC(=O)c1c(-c2ccc(F)cc2)oc2cc(N(CCO)S(C)(=O)=O)c(C3CC3)cc12` [HCV-796], the EC50 in [1] is < 0.1 µM; in series [3] (Hepatitis C virus, read-out: EC50, GSK-4^res), 0.06 ± 0.03 µM; in series [4] it was 0.01 ± 0.003 µM. Besides, the CC50 in series [2] was > 33 µM. In addition, the “fold resistance, GSK-4^res” value in series [3] (versus wild-type replicon) is given as “(0.75)”.

Regarding `CC(C)(C)NC(=O)N[C@H](C(=O)N1C[C@H]2[C@@H]([C@H]1C(=O)NC(CC1CCC1)C(=O)C(N)=O)C2(C)C)C(C)(C)C` (stereo partly drawn) [SCH 503034, (1R,5S)-N-[3-amino-1-(cyclobutylmethyl)-2,3-dioxopropyl]-3-[2(S)-[[[(1,1-dimethylethyl)amino]carbonyl]amino]-3,3-dimethyl-1-oxobutyl]-6,6-dimethyl-3-azabicyclo[3.1.0]hexan-2(S)-carboxamide], the EC50 in [1] stood at 0.34 µM. In addition, the CC50 in series [2] was ≥ 7.4 µM.

In the case of `CC1CCC(C(=O)N(c2cc(-c3ccccc3)sc2C(=O)O)C2CCC(O)CC2)CC1` (stereo not shown) [VCH-759], in series [5] (HCV-infected patients), the “tolerability in early clinical studies” value is listed as “generally well-tolerated”. Also, the “decrease in HCV RNA” value in series [5] (after 10 days of treatment in HCV-infected patients) was 2.5 log10.

Turning to `CCC[C@H](NC(=O)[C@@H]1[C@H]2CCC[C@H]2CN1C(=O)[C@@H](NC(=O)[C@@H](NC(=O)c1cnccn1)C1CCCCC1)C(C)(C)C)C(=O)C(=O)NC1CC1` [VX-950], the EC50 in series [1] came to 0.29 ± 0.11 µM; in series [7] it was 0.31 ± 0.05 µM; in series [8], 1 ± 0.03 µM; in [4] it was 1.4 ± 0.49 µM; in [9], 0.69 ± 0.15 µM; in [10] it was 14 ± 1.4 µM. Moreover, the CC50 in [2] is ≥ 24 µM. In [6] (five times EC50, 3 passages), the “clearance of Huh 9-13 cells from their replicon, drug alone” value was “did not achieve complete clearance”. Further, the “fold resistance, BILN-2061^res” value in [7] is recorded as “(0.53)”. In series [8], the “fold resistance, 2′-C-MeCyt^res” value is “(1.7)”. In addition, the “fold resistance, 4′-Azidocytidine^res” value in [9] is listed as “(1.2)”. In series [10], the “fold resistance, VX-950^res and BILN-2061^res” value was “(24)”.

Regarding `C[C@@]1(O)[C@H](O)[C@@H](CO)O[C@H]1n1ccc(N)nc1=O` [2′-C-MeCyt, 2′-C-Methylcytidine], the EC50 in [1] was 0.1 ± 0.02 µM; in series [7], 0.91 ± 1.1 µM; in series [8], ≥ 30 µM; in series [4], 1.02 ± 0.44 µM; in series [9], 3.4 ± 1.1 µM; in series [10] it was 1 ± 0.7 µM. Further, the CC50 in series [2] is ≥ 26 µM. Also, the “clearance of replicon, drug alone” value in series [6] (20 × EC50, Huh 9-13) is “failed to achieve clearance”. In addition, the “drug resistant replicon in cells surviving rebound conditions” value in series [6] (after treatment, addition of G418, data not shown) is recorded as “did not contain drug resistant replicon”. In addition, in series [7], the “fold resistance, BILN-2061^res” value is given as “(2.1)”. Further, in series [8], the “fold resistance, 2′-C-MeCyt^res” value is recorded as “⩾81”. In addition, the “fold resistance, 4′-Azidocytidine^res” value in series [9] is “(7.9)”. The “fold resistance, VX-950^res and BILN-2061^res” value in series [10] is on record as “(2.3)”.

As to `[N-]=[N+]=N[C@]1(CO)O[C@@H](n2ccc(N)nc2=O)[C@H](O)[C@@H]1O` [4′-Azidocytidine, 4′-azidocytidine], the cytotoxic concentration (CC50) in series [2] was > 33 µM. Besides, in series [8], the EC50 worked out at 1.2 ± 0.43 µM and the “fold resistance, 2′-C-MeCyt^res” value was “(0.41)”. Moreover, in series [4], the EC50 came out at 7.4 ± 3.7 µM. For the same compound, in series [9], the EC50 is ≥ 16 µM and the “fold resistance, 4′-Azidocytidine^res” value is given as “(⩾5.5)”.

With `NC(=O)c1ncn([C@@H]2O[C@H](CO)[C@@H](O)[C@H]2O)n1` [Ribavirin], the CC50 in series [2] was > 33 µM. The EC50 in [4] is 28 ± 16 µM.

Regarding `COc1ccc2c(O[C@@H]3C[C@H]4C(=O)N[C@]5(C(=O)O)C[C@H]5/C=C\CCCCC[C@H](NC(=O)OC5CCCC5)C(=O)N4C3)cc(-c3csc(NC(C)C)n3)nc2c1` [BILN-2061], the half-maximal cytotoxic concentration (CC50) in [2] was ≥ 22 µM. For the same compound, the EC50 worked out at 1.3 ± 0.47 µM in series [7]; 0.04 ± 0.03 µM in series [8]; 0.004 ± 0.002 µM in series [4]; 0.014 ± 0.008 µM in series [9]; 0.8 ± 0.08 µM in series [10]. For the same compound, in series [7], the “fold resistance, BILN-2061^res” value is recorded as “(130)”. The “fold resistance, 2′-C-MeCyt^res” value in [8] was “(4.0)”. In addition, the “fold resistance, 4′-Azidocytidine^res” value in series [9] is recorded as “(0.93)”. Besides, the “fold resistance, VX-950^res and BILN-2061^res” value in [10] is given as “(80)”.

The record behind these values is publication PMC7114863 (Journal of Hepatology, 2009).
